Data on eleven molecules can be found in ChEMBL document CHEMBL5291721, “A preclinical secondary pharmacology resource illuminates target-adverse drug reaction associations of marketed drugs” (Nat Commun, 2023).

As a reminder, the AC50 is the midpoint of the concentration-response curve, whichever way the signal moves.

Among the targets are Vasopressin V1a receptor (Homo sapiens, UniProt P37288); Vasopressin V2 receptor (Homo sapiens, UniProt P30518); Histamine H3 receptor (Homo sapiens, UniProt Q9Y5N1).
The target of another assay is T1, Adenosine receptor A1 (Homo sapiens, UniProt P30542).
T1 sequence (P30542 whole entry): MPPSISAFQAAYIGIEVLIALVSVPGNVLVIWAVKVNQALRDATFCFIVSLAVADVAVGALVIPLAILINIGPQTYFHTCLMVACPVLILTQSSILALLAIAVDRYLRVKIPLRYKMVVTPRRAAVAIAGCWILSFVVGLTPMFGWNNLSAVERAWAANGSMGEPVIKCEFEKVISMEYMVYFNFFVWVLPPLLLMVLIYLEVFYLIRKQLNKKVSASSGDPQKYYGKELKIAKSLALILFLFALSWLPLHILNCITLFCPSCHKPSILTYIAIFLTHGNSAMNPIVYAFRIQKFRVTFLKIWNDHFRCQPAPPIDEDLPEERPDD

Assay [1] has as its target T2, Type-1 angiotensin II receptor (Homo sapiens, UniProt P30556).
T2 sequence (P30556 whole entry): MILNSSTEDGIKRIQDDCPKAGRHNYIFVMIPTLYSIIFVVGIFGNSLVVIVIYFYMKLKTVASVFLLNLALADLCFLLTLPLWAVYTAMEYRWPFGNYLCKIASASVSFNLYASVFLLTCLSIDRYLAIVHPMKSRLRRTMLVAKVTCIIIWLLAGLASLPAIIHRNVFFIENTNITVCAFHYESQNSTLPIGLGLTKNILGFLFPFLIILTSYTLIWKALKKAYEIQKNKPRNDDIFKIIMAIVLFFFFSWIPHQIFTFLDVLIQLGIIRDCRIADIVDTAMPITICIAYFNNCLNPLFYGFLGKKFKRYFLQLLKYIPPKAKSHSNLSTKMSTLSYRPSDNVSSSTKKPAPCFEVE

Assay [2] concerns the target T3, Gastrin/cholecystokinin type B receptor (Homo sapiens, UniProt P32239).
T3 sequence (P32239 whole entry): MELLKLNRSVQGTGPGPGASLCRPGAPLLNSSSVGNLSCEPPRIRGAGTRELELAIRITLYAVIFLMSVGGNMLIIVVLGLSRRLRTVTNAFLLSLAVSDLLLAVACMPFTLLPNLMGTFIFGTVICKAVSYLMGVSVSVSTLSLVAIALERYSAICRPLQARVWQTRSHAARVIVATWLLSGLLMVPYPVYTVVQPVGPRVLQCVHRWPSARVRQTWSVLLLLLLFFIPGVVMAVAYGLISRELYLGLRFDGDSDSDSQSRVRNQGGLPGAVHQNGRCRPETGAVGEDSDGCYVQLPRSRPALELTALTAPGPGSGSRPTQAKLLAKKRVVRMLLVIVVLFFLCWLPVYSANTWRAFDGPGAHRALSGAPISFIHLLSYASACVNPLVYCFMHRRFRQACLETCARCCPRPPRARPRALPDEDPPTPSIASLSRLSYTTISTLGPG

The target in assay [3] is T4, Muscarinic acetylcholine receptor M1 (Homo sapiens, UniProt P11229).
T4 sequence (P11229 whole entry): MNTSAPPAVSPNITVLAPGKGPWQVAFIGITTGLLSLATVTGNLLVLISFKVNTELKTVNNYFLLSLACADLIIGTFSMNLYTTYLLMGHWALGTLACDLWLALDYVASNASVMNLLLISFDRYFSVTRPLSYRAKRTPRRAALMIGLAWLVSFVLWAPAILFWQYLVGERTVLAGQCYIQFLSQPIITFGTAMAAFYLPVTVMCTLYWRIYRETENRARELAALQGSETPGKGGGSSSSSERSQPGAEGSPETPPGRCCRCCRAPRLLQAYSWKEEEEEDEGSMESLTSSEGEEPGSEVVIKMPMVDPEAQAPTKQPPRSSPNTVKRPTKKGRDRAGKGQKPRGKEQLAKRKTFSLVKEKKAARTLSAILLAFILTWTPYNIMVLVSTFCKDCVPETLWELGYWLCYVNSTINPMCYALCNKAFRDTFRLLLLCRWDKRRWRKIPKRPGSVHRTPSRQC
The assay is classed as functional.

In a further assay the target is Cannabinoid receptor 1 (Homo sapiens, UniProt P21554). Format: functional, cell-based.
Sequence of Cannabinoid receptor 1 (P21554 whole entry): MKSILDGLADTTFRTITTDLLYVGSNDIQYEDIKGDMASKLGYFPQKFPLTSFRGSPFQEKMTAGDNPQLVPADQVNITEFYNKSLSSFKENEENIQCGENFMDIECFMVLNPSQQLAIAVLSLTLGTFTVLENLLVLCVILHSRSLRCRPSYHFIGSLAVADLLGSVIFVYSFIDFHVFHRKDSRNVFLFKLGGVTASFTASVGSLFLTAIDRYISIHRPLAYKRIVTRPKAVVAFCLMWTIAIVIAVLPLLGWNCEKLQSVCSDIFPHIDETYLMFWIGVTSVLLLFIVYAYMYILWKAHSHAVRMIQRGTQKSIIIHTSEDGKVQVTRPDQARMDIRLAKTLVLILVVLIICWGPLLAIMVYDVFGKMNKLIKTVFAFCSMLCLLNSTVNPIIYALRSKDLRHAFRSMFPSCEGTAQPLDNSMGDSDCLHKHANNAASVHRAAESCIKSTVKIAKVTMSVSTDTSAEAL
In assay [4] the target is 5-hydroxytryptamine receptor 2A (Homo sapiens, UniProt P28223). Format: functional, cell-based.
Sequence of 5-hydroxytryptamine receptor 2A (P28223 whole entry): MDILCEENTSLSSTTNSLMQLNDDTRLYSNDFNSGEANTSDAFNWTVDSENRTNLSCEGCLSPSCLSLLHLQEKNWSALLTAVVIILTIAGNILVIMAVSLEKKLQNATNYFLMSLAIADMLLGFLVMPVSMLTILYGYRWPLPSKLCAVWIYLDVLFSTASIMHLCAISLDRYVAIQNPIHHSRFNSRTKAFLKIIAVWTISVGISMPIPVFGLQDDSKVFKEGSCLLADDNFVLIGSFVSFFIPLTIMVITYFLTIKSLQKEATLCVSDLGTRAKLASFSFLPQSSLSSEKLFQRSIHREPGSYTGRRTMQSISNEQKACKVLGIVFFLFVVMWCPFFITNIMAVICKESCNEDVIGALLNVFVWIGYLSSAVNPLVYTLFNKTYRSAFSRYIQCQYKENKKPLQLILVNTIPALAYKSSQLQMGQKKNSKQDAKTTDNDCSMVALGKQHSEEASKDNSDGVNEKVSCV
The target of assay [5] is T5, 5-hydroxytryptamine receptor 2C (Homo sapiens, UniProt P28335).
T5 sequence (P28335 whole entry): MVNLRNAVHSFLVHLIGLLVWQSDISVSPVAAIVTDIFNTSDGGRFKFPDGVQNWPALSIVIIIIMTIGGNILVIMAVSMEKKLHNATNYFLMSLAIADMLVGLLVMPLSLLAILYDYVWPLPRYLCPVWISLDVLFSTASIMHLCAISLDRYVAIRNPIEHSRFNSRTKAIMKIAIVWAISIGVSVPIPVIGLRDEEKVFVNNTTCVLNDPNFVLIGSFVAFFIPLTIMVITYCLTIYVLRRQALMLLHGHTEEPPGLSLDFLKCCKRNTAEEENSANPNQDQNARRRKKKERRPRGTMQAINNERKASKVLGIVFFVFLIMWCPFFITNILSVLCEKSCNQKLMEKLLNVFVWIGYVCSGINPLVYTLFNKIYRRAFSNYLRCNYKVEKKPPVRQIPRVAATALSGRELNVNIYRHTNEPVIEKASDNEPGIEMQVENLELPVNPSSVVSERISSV

For assay [6], the target named is T6, 5-hydroxytryptamine receptor 3A (Homo sapiens, UniProt P46098).
T6 sequence (P46098 whole entry): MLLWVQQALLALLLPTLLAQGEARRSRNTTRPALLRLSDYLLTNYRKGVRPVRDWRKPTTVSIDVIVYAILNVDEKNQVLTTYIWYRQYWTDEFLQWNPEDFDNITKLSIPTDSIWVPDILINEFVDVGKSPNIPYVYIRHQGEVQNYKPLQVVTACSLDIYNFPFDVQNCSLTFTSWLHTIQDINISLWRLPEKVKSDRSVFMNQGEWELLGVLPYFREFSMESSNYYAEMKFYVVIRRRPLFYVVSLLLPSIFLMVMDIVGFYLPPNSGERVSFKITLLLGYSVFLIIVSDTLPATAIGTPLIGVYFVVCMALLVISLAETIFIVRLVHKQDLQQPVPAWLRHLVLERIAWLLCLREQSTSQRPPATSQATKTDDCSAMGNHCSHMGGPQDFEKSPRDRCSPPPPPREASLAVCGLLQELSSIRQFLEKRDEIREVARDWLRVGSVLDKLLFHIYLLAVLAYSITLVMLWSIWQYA
The assay is classed as functional.

Each structure is given as a SMILES string.
Further: assay procedure not described here.

Sequence of Vasopressin V1a receptor (P37288 whole entry): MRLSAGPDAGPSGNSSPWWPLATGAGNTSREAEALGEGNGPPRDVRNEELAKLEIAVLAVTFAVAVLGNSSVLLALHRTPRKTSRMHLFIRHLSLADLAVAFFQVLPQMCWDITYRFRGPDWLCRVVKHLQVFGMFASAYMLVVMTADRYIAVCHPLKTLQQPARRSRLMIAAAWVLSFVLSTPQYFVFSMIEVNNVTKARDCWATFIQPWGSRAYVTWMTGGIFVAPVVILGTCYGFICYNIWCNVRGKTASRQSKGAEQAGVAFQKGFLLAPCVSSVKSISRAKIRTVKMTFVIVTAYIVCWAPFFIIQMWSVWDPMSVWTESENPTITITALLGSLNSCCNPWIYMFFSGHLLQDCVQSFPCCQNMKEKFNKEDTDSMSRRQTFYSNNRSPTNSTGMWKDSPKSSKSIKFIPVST
Sequence of Vasopressin V2 receptor (P30518 whole entry): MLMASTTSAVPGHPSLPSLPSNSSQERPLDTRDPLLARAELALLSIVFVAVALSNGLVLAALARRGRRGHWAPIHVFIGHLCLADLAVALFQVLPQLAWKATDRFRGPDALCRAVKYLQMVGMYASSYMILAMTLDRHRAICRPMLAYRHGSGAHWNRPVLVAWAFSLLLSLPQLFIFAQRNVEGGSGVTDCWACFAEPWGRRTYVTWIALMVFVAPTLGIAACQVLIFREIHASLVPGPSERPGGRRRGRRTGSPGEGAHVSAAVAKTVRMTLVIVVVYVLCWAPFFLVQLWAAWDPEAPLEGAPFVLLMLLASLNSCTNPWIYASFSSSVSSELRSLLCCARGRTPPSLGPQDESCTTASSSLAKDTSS
Sequence of Histamine H3 receptor (Q9Y5N1 whole entry): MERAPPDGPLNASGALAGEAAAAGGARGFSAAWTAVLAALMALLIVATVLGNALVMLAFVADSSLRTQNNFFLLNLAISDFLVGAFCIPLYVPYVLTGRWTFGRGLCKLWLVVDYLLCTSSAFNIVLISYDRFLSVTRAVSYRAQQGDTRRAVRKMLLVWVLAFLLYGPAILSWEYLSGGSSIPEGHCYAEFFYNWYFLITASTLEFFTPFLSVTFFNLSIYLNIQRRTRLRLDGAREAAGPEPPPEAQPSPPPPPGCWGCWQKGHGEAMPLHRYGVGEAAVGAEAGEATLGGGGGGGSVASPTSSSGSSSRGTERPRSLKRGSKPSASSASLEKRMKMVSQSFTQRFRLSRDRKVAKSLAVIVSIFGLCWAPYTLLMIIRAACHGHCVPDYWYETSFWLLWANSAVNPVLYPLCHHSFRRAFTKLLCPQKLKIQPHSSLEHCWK

In the case of `N#Cc1ccccc1-c1cc(-c2ccccn2)cn(-c2ccccc2)c1=O`, the AC50 (at Adenosine receptor A1; in assay [1]; at Vasopressin V1a receptor; on Vasopressin V2 receptor; in [2]; in [3]) was > 30 µM in each case. Further, the AC50 (at Cannabinoid receptor 1; in [4]; in [5]; in assay [6]; on Histamine H3 receptor) was > 30 µM each time.

Regarding `N=C(N)NCCCCCCC(=O)NC(O)C(=O)NCCCCNCCCN` (stereo unspecified), the AC50 (at Adenosine receptor A1; in assay [1]; at Vasopressin V1a receptor; on Vasopressin V2 receptor; in assay [2]; in [3]) was > 30 µM throughout. Besides, the AC50 (on Cannabinoid receptor 1; in assay [4]; in [5]; in assay [6]; on Histamine H3 receptor) was > 30 µM in each case.

Consider `C=C[C@@]1(C)CC(=O)[C@]2(O)[C@@]3(C)[C@@H](O)CCC(C)(C)[C@@H]3[C@H](OC(=O)CCN(C)C)[C@H](OC(C)=O)[C@@]2(C)O1`, for which the AC50 (at Adenosine receptor A1; in [1]; at Vasopressin V1a receptor; at Vasopressin V2 receptor; in assay [2]; in assay [3]) was > 30 µM each time. Besides, the AC50 (at Cannabinoid receptor 1; in assay [4]; in assay [5]; in assay [6]; at Histamine H3 receptor) was > 30 µM throughout.

With `O=C(CCCN1CCC(n2c(O)nc3ccccc32)CC1)c1ccc(F)cc1` [BENPERIDOL], the AC50 is > 30 µM on Adenosine receptor A1; > 30 µM in [1]; > 30 µM on Vasopressin V1a receptor; > 30 µM at Vasopressin V2 receptor; > 30 µM in assay [2]; 13 µM in assay [3]. For the same molecule, the AC50 at Cannabinoid receptor 1 is > 30 µM; in assay [4] it was 0.12 µM; in assay [5], 13 µM; in assay [6], > 30 µM; on Histamine H3 receptor, 18 µM.

As to `CCN(CC)C(=O)C1CN2CCc3cc(OC)c(OC)cc3C2CC1OC(C)=O` (stereo unspecified) [BENZQUINAMIDE], the AC50 (on Adenosine receptor A1; in assay [1]; at Vasopressin V1a receptor; on Vasopressin V2 receptor; in assay [2]; in assay [3]) was > 30 µM throughout. Besides, the AC50 at Cannabinoid receptor 1 was > 30 µM; in assay [4], 1.57 µM; in [5], 17 µM; in [6] it was > 30 µM; at Histamine H3 receptor, > 30 µM.

On to `CCC(=O)OCC(=O)[C@@]1(OC(=O)CC)[C@@H](C)C[C@H]2[C@@H]3CCC4=CC(=O)C=C[C@]4(C)[C@@]3(F)[C@@H](O)C[C@@]21C` [BETAMETHASONE DIPROPIONATE], for which the AC50 (on Adenosine receptor A1; in assay [1]; at Vasopressin V1a receptor; on Vasopressin V2 receptor; in assay [2]; in assay [3]) was > 30 µM throughout. Further, the concentration at half-maximal activity (AC50) (at Cannabinoid receptor 1; in assay [4]; in assay [5]; in [6]; at Histamine H3 receptor) was > 30 µM in each case.

Regarding `CCCCC1(CC)C(=O)NC(=O)NC1=O` [BUTETHAL], the AC50 (at Adenosine receptor A1; in assay [1]; on Vasopressin V1a receptor; at Vasopressin V2 receptor; in assay [2]; in assay [3]) was > 30 µM each time. The AC50 (on Cannabinoid receptor 1; in [4]; in [5]; in [6]; on Histamine H3 receptor) was > 30 µM each time.

As for `CCOC(=O)NNc1ccc(N(CC)CC(C)O)nn1` (stereo unspecified) [CADRALAZINE], the AC50 (on Adenosine receptor A1; in assay [1]; at Vasopressin V1a receptor; at Vasopressin V2 receptor; in assay [2]; in assay [3]) was > 30 µM throughout. The half-maximal activity concentration (AC50) (on Cannabinoid receptor 1; in assay [4]; in assay [5]; in assay [6]; on Histamine H3 receptor) was > 30 µM each time.

In the case of `CCCC(C)(COC(N)=O)COC(=O)NC(C)C` (stereo unspecified) [CARISOPRODOL], the concentration at half-maximal activity (AC50) at Adenosine receptor A1 was > 30 µM; in [1] it was > 30 µM; at Vasopressin V1a receptor it was > 10 µM; on Vasopressin V2 receptor, > 30 µM; in [2] it was > 30 µM; in assay [3] it was > 10 µM. The AC50 on Cannabinoid receptor 1 is > 30 µM; in assay [4], > 30 µM; in assay [5] it was > 30 µM; in assay [6] it was > 30 µM; on Histamine H3 receptor, > 10 µM.

`CO[C@@]1(NC(=O)Cc2cccs2)C(=O)N2C(C(=O)O)=C(COC(N)=O)CS[C@@H]21` [CEFOXITIN]: the AC50 (at Adenosine receptor A1; in assay [1]; at Vasopressin V1a receptor; on Vasopressin V2 receptor; in [2]; in [3]) was > 30 µM in each case. The AC50 (on Cannabinoid receptor 1; in [4]; in assay [5]; in [6]; at Histamine H3 receptor) was > 30 µM each time.

For `CCN(CC)CCOC(=O)c1ccc(N)cc1Cl` [CHLOROPROCAINE], the AC50 (on Adenosine receptor A1; in assay [1]; at Vasopressin V1a receptor; at Vasopressin V2 receptor; in assay [2]; in [3]) was > 30 µM throughout. The AC50 on Cannabinoid receptor 1 was > 30 µM; in assay [4], > 30 µM; in [5] it was 17 µM; in assay [6], 11 µM; at Histamine H3 receptor it was 4 µM.
